Reference: patent publication US12630493B2, “Anti-inflammatory compounds” (priority 2018, dated 2026)
Entries after “also recorded” stand apart in the source; their conditions may differ.

Tests used:
TNF-[…] = assay: kavain analog screening assay, TNF inhibition in BMM infected with P. gingivalis; format: cell-based, murine
Method: (§1) To identify compounds with strong anti-inflammatory properties, kavain analogs were tested in a screening assay based on TNF-[…] inhibition in BMM infected with P. gingivalis (FIG. 1B). This screen identified Kava-205Cl (5,5-dimethyl-3-oxocyclohex-1-en-1-yl 4-chlorobenzoate) and its methylated analog Kava-205Me (5,5-dimethyl-3-oxocyclohex-1-en-1-yl 4-methylbenzoate) (FIG. 1B) as effective inhibitors of TNF-[…] secretion (z=−0.99 and z=−1.07 respectively).

TNF-α [1] = assay: TNF-α secretion, dose-response in THP-1 infected with P. gingivalis; format: cell-based, human
Method: (§2) See Amar, Salomon et al., Identification of a Kavain Analog with Efficient Anti-inflammatory Effects, [Currently unpublished], 2019. (Incorporated by reference in its entirety, herein). Specifically, in an in vitro assay of anti-inflammatory effects, murine macrophages (BMM) and THP-1 cells were infected with P. gingivalis (MOI=20:1) and a panel of cytokines were measured.
as §1

TNF-α [2] = assay: TNF-α secretion, dose-response in BMM infected with P. gingivalis; format: cell-based, murine
Method: as §2, §1

[3] = test system: IL-12, IFN-γ, MIP-1β, RANTES, IL-10, G-CSF and eotaxin; assay: multiplex analysis of chemokines and cytokines from BMM exposed to P. gingivalis; format: cell-based, murine
Method: as §2
(§3) P. gingivalis is able to induce sustained recruitment of immune cells such a neutrophils and T-lymphocytes, whose presence is associated with excessive inflammation and tissue destruction at infectious sites. To evaluate the effect of Kava-205Me on the secretion of chemokines and cytokines from BMM exposed to P. gingivalis, a multiplex analysis was performed that compared P. gingivalis infected cells with and without treatment with Kava-205Me. […] Moreover, the gene expression of ACP5, an osteoclast specific gene, was evaluated in BMM infected with P. gingivalis with or without Kava-205Me treatment.

ACP5 = ACP5 gene expression in BMM infected with P. gingivalis; format: cell-based, murine
Method: as §3

[4] = test system: P. gingivalis-induced calvarial destruction; assay: acute model of P. gingivalis-induced calvarial destruction; format: in vivo
Method: as §2
In an acute model of P. gingivalis infection, Kava-205Me was administered to evaluate its anti-inflammatory and pro-healing properties in vivo. In this calvarial model, injection of P. gingivalis induced formation of a cutaneous abscess characterized by dermal inflammation and bone destruction (FIG. 4).

[5] = test system: infective arthritis (collagen-antibody + P. gingivalis); assay: infective arthritis murine model, P. gingivalis and AB peritoneal injection (Kava-205Me); format: in vivo, mice
Method: as §2
To evaluate the systemic effect of Kava-205Me, an infective arthritis was induced in mice by the combined insults of P. gingivalis and AB peritoneal injection. After 10 days, significant paw swelling was observed, confirming the establishment of joint inflammation and a destructive process (FIG. 5). […] This anti-inflammatory effect was confirmed histologically (FIG. 5C).

[6] = test system: P. gingivalis+ type II collagen antibody induced periodontitis; assay: collagen antibody primed oral gavage model of periodontitis; format: in vivo, mice
Method: The effect of Kava-241 on periodontal destruction in a collagen antibody primed oral gavage model of periodontitis was evaluated. In this example, experimental periodontitis was induced by oral gavage of P. gingivalis+ type II collagen antibody (AB) in mice during 15 days. Mice were treated with Kava-241 concomitantly or prior to P. gingivalis gavage and compared to untreated mice. Comprehensive histomorphometric analyses were performed. […] The Kava-241 effect was associated with a reduction in inflammatory cell counts within soft tissues and an increase in fibroblasts.

[7] = test system: infective arthritis (P. gingivalis + ArthritoMab antibody cocktail); assay: infective arthritis murine model triggered by P. gingivalis and primed with collagen antibody cocktail (Kava-241); format: in vivo, DBA1/BO male mice; conditions: CIA cocktail, treated concomitantly
From the text: Kava-241 (I-BC-241) is a compound derived from kavain and has been synthesized as described previously. In this example, we evaluated the systemic and articular effects Kava-241 in an infective arthritis murine model triggered by P. gingivalis bacterial inoculation and primed with collagen antibody cocktail (CIA) to induce joint inflammation and tissular destruction. Arthritis was induced in twenty-eight six-week-old, pathogen-free DBA1/BO male mice by two consecutive injections of ArthritoMab (AB) Antibody cocktail (CIA-MAB-2C, MD Bioproducts, Oakdale, MN, USA), the first injection of 7 mg at baseline, followed by a second injection of 4 mg at day 5. For P. gingivalis injected groups, 3 intraperitoneal injections of 5.10^8 bacteria/100 μl were performed at days 2, 8 and 11. Mice were sacrificed after 17 days. Clinical inflammation score and radiological analysis of the paws were performed continuously while histological assessment was obtained at sacrifice. Forepaws were evaluated to score arthritis using a visual qualitative assessment scoring as follows: 0) no paw swelling, 1) mild swelling, 2) moderate swelling, 3) severe swelling (22). Inflammation was also evaluated with X-rays examination.

TNF-α [8] = assay: serum TNF-α in mice injected with P. gingivalis-lipopolysaccharide; format: in vivo; conditions: mice injected with TLR 2/4 ligand P. gingivalis-LPS
[9] = test system: TLR-2/4, MAPKs related signal elements, LITAF; assay: signalling in bone-marrow derived macrophages infected with P. gingivalis; format: cell-based, murine; conditions: BMM infected with P. gingivalis
TNF-α [10] = conditions: Escherichia coli LPS-stimulated RAW cells; cited from earlier work
[11] = test system: P. gingivalis+ type II collagen antibody induced periodontitis; conditions: P. gingivalis induced PD in a collagen antibody primed mouse model; cited from earlier work
[12] = collagen-antibody (ArthriomAb)+P. gingivalis
[13] = P. gingivalis+ AG group, p<0.05

SMILES: CC1(C)CC(=O)C=C(OC(=O)c2ccc(Cl)cc2)C1 [Kava-205Cl, 5,5-dimethyl-3-oxocyclohex-1-en-1-yl 4-chlorobenzoate]
- TNF-[…] secretion, z (TNF-[…]): −0.99

SMILES: Cc1ccc(C(=O)OC2=CC(=O)CC(C)(C)C2)cc1 [Kava-205Me, 5,5-dimethyl-3-oxocyclohex-1-en-1-yl 4-methylbenzoate]
- TNF-[…] secretion, z (TNF-[…]): −1.07
- TNF-α secretion induced by P. gingivalis (TNF-α [1]; THP-1 cells, MOI=20:1, 10 to 200 μg/ml): significantly and dose-dependently reduced
- TNF-[…] secretion (TNF-α [1]; THP-1 infected with P. gingivalis, lowest tested dose 10 µg/ml): reduced significantly
- TNF-[…] secretion (TNF-α [2]; BMM infected with P. gingivalis, lowest tested dose 10 µg/ml): reduced significantly
- TNF-α secretion induced by P. gingivalis (TNF-α [2]; BMM, MOI=20:1, 10 to 200 μg/ml): significantly and dose-dependently reduced
- concentrations of chemokines and cytokines (IL-12, IFN-γ, MIP-1β, RANTES, IL-10, G-CSF and eotaxin) ([3]; BMM exposed to P. gingivalis, multiplex analysis): significantly reduced
- secretion of IL-12, eotaxin, RANTES, IL-10 and interferon-γ ([3]; BMM infected with P. gingivalis, p<0.05): reduced
- ACP5 gene expression (ACP5): reduced
- osteoclastic activity [4]: reduced; also recorded: trend of reduction
- rate of healing ([4]; P. gingivalis injection): significantly improved; also recorded: significantly increased
- soft tissue inflammation ([4]; histological level): reduced significantly
- number of TRAP positive multinucleated cells in contact with bone (osteoclastic activity of the infiltrate) ([5]; P. gingivalis-exposed animals): reduction
- inflammatory infiltrate in paw tissue sections ([5]; animals exposed to P. gingivalis, histology): significant reduction
- joint destruction [5, 12]: reduce efficiently
- paw swelling [5, 12]: reduce efficiently
- P. gingivalis-induced paw swelling ([5]; systemic administration, 32 day time point): significantly decreased

SMILES: CC1(C)CC(=O)C=C(OC(=O)c2ccccc2)C1 [Kava-241, 5,5-dimethyl-3-oxocyclohex-1-en-1-yl benzoate]
- reduced alveolar bone loss [6, 13]: 36%
- reduced epithelial down-growth [6, 13]: 72%
- inflammatory cell counts within soft tissues ([6]; periodontitis model): reduction
- fibroblasts ([6]; periodontitis model, soft tissues): increase
- clinical inflammatory score [7]: reduced
- number of inflammatory cells within joint [7]: decreased
- number of osteoclasts within joint [7]: decreased
- TNF-α in serum (TNF-α [8]): decreased significantly
- LITAF [9]: reduced
- MAPKs related signal elements [9]: reduced
- TLR-2/4 [9]: reduced
- TNF-α secretion (TNF-α [10]): reduced
- inflammation including alveolar bone loss [11]: prevented
